Measured values from patent US9708314B2, “Heterocyclic amide compound” (NISSAN CHEMICAL INDUSTRIES, LTD., priority 2013, dated 2017).

Legend:
Format in all cases: in vivo
[1] = test system: directly sowed Oryza sativa; assay: Test Example 3: effect on crop by application to foliage (Wagner pot, water depth 0.1-0.5 cm); conditions: Nineteenth Table; application to foliage; application herbicide amount 320 g/ha
From the text: 5 Herbicidal ratio of 90% or more (almost completely withered) 4 Herbicidal ratio of 70% or more and less than 90% 3 Herbicidal ratio of 40% or more and less than 70% 2 Herbicidal ratio of 20% or more and less than 40% 1 Herbicidal ratio of 5% or more and less than 20% 0 Herbicidal ratio of 5% or less (almost no effect) [Test Example 3] Herbicidal Effect Test by Application to Foliage After alluvial soil was placed into 1/10000 are of Wagner pot, water was poured and mixed to form a condition having a water depth of 0.1 cm to 0.5 cm. Seeds of Echinochloa crus-galli var. crus-galli, Leptochloa chinensis, Cyperus difformis, and Oryza sativa were sowed and the pot was placed in the greenhouse of 25° C. to 30° C. to grow the plants. After the plants were grown for 14 days, the emulsion agent containing the compound of the present invention prepared in accordance with Formulation Example 2 was diluted with water so as to be a predetermined herbicide amount and the diluted compound was uniformly applied to a stem and leaf part with a small-size spray. Three weeks after the herbicide application, effects on each plant were investigated in accordance with the criteria of Test Example 1. A: Echinochloa oryzicola Vasing., B: Scirpus juncoides, C: Monochoria vaginalis, D: Leptochloa chinensis, E: Cyperus difformis, F: Digitaria ciliaris, G: Setaria viridis, H: Echinochloa crus-galli var. crus-galli, I: Avena fatua, J: Alopecurus myosuroides, K: Lolium multiflorum Lam., L: Apera spica-venti., M: Abutilon theophrasti, N: Amaranthus retroflexus, O: Chenopodium album, P: Stellaria media, Q: Galium spurium, R: Veronica persica, a: transplanted Oryza sativa, b: directly sowed Oryza sativa, c: Zea mays, d: Glycine max, e: Triticum aestivum, f: Beta vulgaris ssp. vulgaris, and g: Brassica campestris L. The application herbicide amount (g/ha) means an amount that a concentration is adjusted so that, when an application amount is converted into per hectare (1 ha), the herbicide is applied by the number of grams (g) of the described value.

[2] = test system: Beta vulgaris ssp. vulgaris; assay: Test Example 4: effect on crop by application to foliage (diluvial soil, plastic box); conditions: application to foliage, application herbicide amount 320 g/ha
Summary of the method: (§1)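 Greenhouse plants (25° C. to 30° C., 14 d, diluvial soil) receive a foliar spray of water-diluted emulsifiable formulation at defined g/ha. Grading after 3 weeks uses a six-step herbicidal-ratio scale, with 4 covering 70% to <90% and 1 covering 5% to <20%.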

Triticum aestivum = assay: as above; conditions: application to foliage, application herbicide amount 320 g/ha
Summary of the method: as §1

Brassica campestris L. = assay: as above; conditions: application to foliage, application herbicide amount 320 g/ha
Summary of the method: as §1

Zea mays = assay: as above; conditions: application to foliage, application herbicide amount 320 g/ha
Summary of the method: as §1

Glycine max = assay: as above; conditions: application to foliage, application herbicide amount 320 g/ha
Summary of the method: as §1

[3] = test system: directly sowed Oryza sativa; assay: as above; conditions: application to foliage, application herbicide amount 320 g/ha
Summary of the method: as §1

Leptochloa chinensis = assay: Test Example 3: herbicidal effect by application to foliage (Wagner pot, water depth 0.1-0.5 cm); conditions: Nineteenth Table; application to foliage; application herbicide amount 320 g/ha
Summary of the method: (§2)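 Scores (0–5) reflect herbicidal ratio three weeks after a foliar spray: 0 is 5% or less, 5 is 90% or more. Plants had grown 14 days in alluvial soil pots in a 25–30 °C greenhouse before treatment with water-diluted emulsion at a set g/ha.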

[4] = test system: Echinochloa crus-galli var. crus-galli; assay: as above; conditions: Nineteenth Table; application to foliage; application herbicide amount 320 g/ha
Summary of the method: as §2

Digitaria ciliaris = assay: Test Example 4: herbicidal effect by application to foliage (diluvial soil, plastic box); conditions: application to foliage, application herbicide amount 320 g/ha
Summary of the method: as §1

Alopecurus myosuroides = assay: as above; conditions: application to foliage, application herbicide amount 320 g/ha
Summary of the method: as §1

Amaranthus retroflexus = assay: as above; conditions: application to foliage, application herbicide amount 320 g/ha
Summary of the method: as §1

Stellaria media = assay: as above; conditions: application to foliage, application herbicide amount 320 g/ha
Summary of the method: as §1

Apera spica-venti. = assay: as above; conditions: application to foliage, application herbicide amount 320 g/ha
Summary of the method: as §1

Avena fatua = assay: as above; conditions: application to foliage, application herbicide amount 320 g/ha
Summary of the method: as §1

Chenopodium album = assay: as above; conditions: application to foliage, application herbicide amount 320 g/ha
Summary of the method: as §1

Abutilon theophrasti = assay: as above; conditions: application to foliage, application herbicide amount 320 g/ha
Summary of the method: as §1

Setaria viridis = assay: as above; conditions: application to foliage, application herbicide amount 320 g/ha
Summary of the method: as §1

Veronica persica = assay: as above; conditions: application to foliage, application herbicide amount 320 g/ha
Summary of the method: as §1

[5] = test system: Echinochloa crus-galli var. crus-galli; assay: as above; conditions: application to foliage, application herbicide amount 320 g/ha
Summary of the method: as §1

Galium spurium = assay: as above; conditions: application to foliage, application herbicide amount 320 g/ha
Summary of the method: as §1

Lolium multiflorum Lam. = assay: as above; conditions: application to foliage, application herbicide amount 320 g/ha
Summary of the method: as §1

## Cc1nnc(NC(=O)c2ccc(C(F)(F)F)n3c(C4CC=CCC4)nnc23)o1 (stereo not shown) [1-170]
[1]
  b (effect on crop grade): 1 (Herbicidal ratio of 5% or more and less than 20%)
[2]
  f: effect on crop, Beta vulgaris ssp. vulgaris: 5 (Herbicidal ratio of 90% or more (almost completely withered))
Triticum aestivum
  e: effect on crop, Triticum aestivum: 0 (Herbicidal ratio of 5% or less (almost no effect))
Brassica campestris L.
  g: effect on crop, Brassica campestris L.: 3 (Herbicidal ratio of 40% or more and less than 70%)
Zea mays
  c: effect on crop, Zea mays: 0 (Herbicidal ratio of 5% or less (almost no effect))
Glycine max
  d: effect on crop, Glycine max: 2 (Herbicidal ratio of 20% or more and less than 40%)
[3]
  b: effect on crop, directly sowed Oryza sativa: 0 (Herbicidal ratio of 5% or less (almost no effect))
Leptochloa chinensis
  D (herbicidal effect grade): 4 (Herbicidal ratio of 70% or more and less than 90%)
[4]
  H (herbicidal effect grade): 2 (Herbicidal ratio of 20% or more and less than 40%)
Digitaria ciliaris
  F: herbicidal effect on Digitaria ciliaris: 4 (Herbicidal ratio of 70% or more and less than 90%)
Alopecurus myosuroides
  J: herbicidal effect on Alopecurus myosuroides: 0 (Herbicidal ratio of 5% or less (almost no effect))
Amaranthus retroflexus
  N: herbicidal effect on Amaranthus retroflexus: 3 (Herbicidal ratio of 40% or more and less than 70%)
Stellaria media
  P: herbicidal effect on Stellaria media: 4 (Herbicidal ratio of 70% or more and less than 90%)
Apera spica-venti.
  L: herbicidal effect on Apera spica-venti.: 1 (Herbicidal ratio of 5% or more and less than 20%)
Avena fatua
  I: herbicidal effect on Avena fatua: 1 (Herbicidal ratio of 5% or more and less than 20%)
Chenopodium album
  O: herbicidal effect on Chenopodium album: 5 (Herbicidal ratio of 90% or more (almost completely withered))
Abutilon theophrasti
  M: herbicidal effect on Abutilon theophrasti: 3 (Herbicidal ratio of 40% or more and less than 70%)
Setaria viridis
  G: herbicidal effect on Setaria viridis: 3 (Herbicidal ratio of 40% or more and less than 70%)
Veronica persica
  R: herbicidal effect on Veronica persica: 4 (Herbicidal ratio of 70% or more and less than 90%)
[5]
  H: herbicidal effect on Echinochloa crus-galli var. crus-galli: 4 (Herbicidal ratio of 70% or more and less than 90%)
Galium spurium
  Q: herbicidal effect on Galium spurium: 2 (Herbicidal ratio of 20% or more and less than 40%)
Lolium multiflorum Lam.
  K: herbicidal effect on Lolium multiflorum Lam.: 1 (Herbicidal ratio of 5% or more and less than 20%)
